Where two headings read alike, the source gives them in different places.
Key:
[1] = system: vancomycin-resistant E. faecalis VRE 342B; assay: In vitro antibacterial evaluation, MIC by microtitration broth method; conditions: Enterococcus faecalis
[2] = system: methicillin-resistant S. aureus SA 3202; assay: as above; conditions: Staphylococcus aureus
[3] = system: vancomycin-resistant E. faecalis VRE 725B; assay: as above; conditions: Enterococcus faecalis
[4] = Lipophilicity determination by HPLC; assay type: physicochemical; conditions: for log D6.5: HPLC C18, MeOH 72%/acetate-buffered saline pH 6.5 28%; for log D7.4: HPLC C18, MeOH 72%/acetate-buffered saline pH 7.4 28%; for averaged lipophilicity value of log k/log D6.5/log D7.4: average of the three experimental descriptors; for log k: logarithm of capacity factor, HPLC C18, MeOH 72%/H2O 28%
Source text: . A chromatographic column Symmetry® C18 5 μm, 4.6 × 250 mm, Part No. W21751W016 (Waters Corp, Milford, MA, USA) was used. The HPLC separation process was monitored by ChemStation for LC 3D systems (Agilent Technologies). Isocratic elution by a mixture of MeOH (HPLC grade, 72%) and H2O-HPLC Mili-Q grade (28%) as a mobile phase was used for the determination of capacity factor k. Isocratic elution by a mixture of MeOH (HPLC grade, 72%) and acetate-buffered saline (pH 7.4 and pH 6.5) (28%) as a mobile phase was used for the determination of distribution coefficient expressed as D7.4 and D6.5. The total flow of the column was 1.0 mL/min, injection was 20 μL, column temperature was 40 °C, and sample temperature was 10 °C. The detection wavelength of 210 nm was chosen. A KI methanolic solution was used for the determination of the dead times (tD). Retention times (tR) were measured in minutes. The capacity factors k were calculated according to the formula k = (tR − tD)/tD, where tR is the retention time of the solute, and tD is the dead time obtained using an unretained analyte. The distribution coefficients DpH were calculated according to the formula DpH = (tR − tD)/tD. Each experiment was repeated three times.

[5] = system: human monocytic leukemia cell line THP-1; assay: In vitro cell viability analysis (CCK-8); assay type: cell-based; conditions: ± SD, n = 6, medium with 10% FBS, 24 h
Protocol: Human monocytic leukemia THP-1 cells obtained from the European Collection of Cell Cultures (ECACC, Salisbury, UK) were used for in vitro antiproliferative assays. They were routinely cultured in Roswell Park Memorial Institute RPMI 1640 medium supplemented with 10% fetal bovine serum (FBS), 2% L-glutamine, 1% penicillin, and streptomycin (all from Sigma-Aldrich) at 37 °C with 5% CO2. The cells were incubated in a complete medium (i.e., containing FBS) with test compounds at 37 °C with 5% CO2 for 24 h, similarly as we described previously. The effect of the test compounds dissolved in DMSO on cell viability was determined using a Cell Counting Kit-8 (CCK-8; Sigma) according to the manufacturer’s instructions.

[6] = system: methicillin-resistant S. aureus SA 630; assay: In vitro antibacterial evaluation, MIC by microtitration broth method; conditions: Staphylococcus aureus
[7] = system: vancomycin-resistant E. faecalis VRE 368; assay: as above; conditions: Enterococcus faecalis
[8] = system: Mycobacterium tuberculosis H37Ra/ATCC 25177; assay: In vitro antimycobacterial evaluation, MIC (alamarBlue); conditions: MT
[9] = system: methicillin-resistant S. aureus 63718; assay: In vitro antibacterial evaluation, MIC by microtitration broth method; conditions: Staphylococcus aureus
[10] = system: Staphylococcus aureus ATCC 29213; assay: as above
[11] = system: Enterococcus faecalis ATCC 29212; assay: as above
M. smegmatis ATCC 700084 = assay: In vitro antimycobacterial evaluation, MIC (broth dilution micro-method); assay type: cell-based, Mycobacterium smegmatis; conditions: Mycolicibacterium smegmatis
Protocol: For M. smegmatis, the broth dilution micro-method in Middlebrook 7H9 medium (Difco) supplemented with ADC Enrichment (Difco) was used. […] Bacterial inocula were prepared by transferring colonies from culture to sterile water. The cell density was adjusted to 0.5 McFarland units using a densitometer (Densi-La-Meter, LIAP, Riga, Latvia). The final inoculum was made by 1:1000 dilution of the suspension with sterile water. Drug-free controls, sterility controls, and controls consisting of medium and DMSO alone were included. The determination of results was performed visually after three days of static incubation in the darkness at 37 °C in an aerobic atmosphere.

[12] = ATCC700084, 72 h, MS, three days, 37 °C, read-out: MIC

SMILES	MIC [1] [µg/mL]	MIC [2] [µg/mL]	MIC [3] [µg/mL]	log D6.5 [4]	log D7.4 [4]	log k [4]	IC50 [5] [µM]	MIC [6] [µg/mL]	MIC [7] [µg/mL]	MIC ([8]; Table S2) [µg/mL]	MIC [9] [µg/mL]	MIC ([10]; ATCC29213) [µg/mL]	MIC ([11]; ATCC29212) [µg/mL]	MIC (M. smegmatis ATCC 700084; ATCC700084) [µg/mL]	further results
C[C@H](NC(=O)c1cc(Cl)ccc1OCc1ccccc1)C(=O)Nc1ccc(C(F)(F)F)cc1 [2a, 2-(Benzyloxy)-5-chloro-N-[(2S)-1-oxo-1-{[4-(trifluoromethyl)phenyl]amino}propan-2-yl]benzamide]	> 256	> 256	> 256	1.489	1.474	1.450	> 10	> 256	> 256	> 256	> 256	> 256	> 256	> 256	averaged lipophilicity value of log k/log D6.5/log D7.4 [4]: 1.47 ± 0.02
CCC[C@H](NC(=O)c1cc(Cl)ccc1OCc1ccccc1)C(=O)Nc1ccc(C(F)(F)F)cc1 [2b, 2-(Benzyloxy)-5-chloro-N-[(2S)-1-oxo-1-{[4-(trifluoromethyl)phenyl]amino}pentan-2-yl]benzamide]	> 256	> 256	> 256	1.742	1.731	1.709	> 10	> 256	> 256	> 256	> 256	> 256	> 256	> 256	
CC(C)[C@H](NC(=O)c1cc(Cl)ccc1OCc1ccccc1)C(=O)Nc1ccc(C(F)(F)F)cc1 [2c, 2-(Benzyloxy)-5-chloro-N-[(2S)-3-methyl-1-oxo-1-{[4-(trifluoromethyl)phenyl]amino}butan-2-yl]benzamide]	> 256	> 256	> 256	1.711	1.697	1.683	> 10	> 256	> 256	> 256	> 256	> 256	> 256	> 256	
CCCC[C@H](NC(=O)c1cc(Cl)ccc1OCc1ccccc1)C(=O)Nc1ccc(C(F)(F)F)cc1 [2d, 2-(Benzyloxy)-5-chloro-N-[(2S)-1-oxo-1-{[4-(trifluoromethyl)phenyl]amino}hexan-2-yl]benzamide]	> 256	> 256	> 256	1.954	1.902	1.898	> 10	> 256	> 256	> 256	> 256	> 256	> 256	> 256	
CSCC[C@H](NC(=O)c1cc(Cl)ccc1OCc1ccccc1)C(=O)Nc1ccc(C(F)(F)F)cc1 [2e, 2-(Benzyloxy)-5-chloro-N-[(2S)-4-(methylsulfanyl)-1-oxo-1-{[4-(trifluoromethyl)phenyl]amino}butan-2-yl]benzamide]	> 256	> 256	> 256	1.714	1.689	1.668	> 10	> 256	> 256	> 256	> 256	> 256	> 256	> 256	
CC(C)C[C@H](NC(=O)c1cc(Cl)ccc1OCc1ccccc1)C(=O)Nc1ccc(C(F)(F)F)cc1 [2f]	> 256	> 256	> 256	2.014	1.995	1.975	> 10	> 256	> 256	> 256	> 256	> 256	> 256	> 256	
O=C(N[C@@H](CC1CCCCC1)C(=O)Nc1ccc(C(F)(F)F)cc1)c1cc(Cl)ccc1OCc1ccccc1 [2g, 2-(Benzyloxy)-5-chloro-N-[(2S)-3-cyclohexyl-1-oxo-1-{[4-(trifluoromethyl)phenyl]amino}propan-2-yl]benzamide]	> 256	> 256	> 256	1.767	1.746	1.820	> 10	> 256	> 256	> 256	> 256	> 256	> 256	> 256	
O=C(N[C@@H](Cc1ccccc1)C(=O)Nc1ccc(C(F)(F)F)cc1)c1cc(Cl)ccc1OCc1ccccc1 [2h]	> 256	> 256	> 256	1.889	1.871	1.852	> 10	> 256	> 256	> 256	> 256	> 256	> 256	> 256	
C[C@H](NC(=O)c1cc(Cl)ccc1O)C(=O)Nc1ccc(C(F)(F)F)cc1 [3a, 5-Chloro-2-hydroxy-N-[(2S)-1-oxo-1-{[4-(trifluoromethyl)phenyl]amino}propan-2-yl]benzamide]				0.804	0.759	0.866	> 10								MIC ([1]; 24 h): > 256 µg/mL; MIC ([2]; 24 h): > 256 µg/mL; MIC ([3]; 24 h): > 256 µg/mL; averaged lipophilicity value of log k/log D6.5/log D7.4 [4]: 0.81 ± 0.05; MIC ([6]; 24 h): > 256 µg/mL; MIC ([7]; 24 h): > 256 µg/mL; MIC ([8]; 14 days, 37 °C): n.a. n.d. (n.a. = no activity (MIC > 256 µg/mL)); MIC ([9]; 24 h): > 256 µg/mL; MIC ([10]; ATCC29213, 24 h): > 256 µg/mL; MIC ([11]; ATCC29212, 24 h): > 256 µg/mL; MIC (M. smegmatis ATCC 700084; [12]): > 256 µg/mL
CCC[C@H](NC(=O)c1cc(Cl)ccc1O)C(=O)Nc1ccc(C(F)(F)F)cc1 [3b, 5-Chloro-2-hydroxy-N-[(2S)-1-oxo-1-{[4-(trifluoromethyl)phenyl]amino}pentan-2-yl]benzamide]				1.060	1.016	1.141	7.3 ± 1.2								MIC ([1]; 24 h): > 256 µg/mL; MIC ([2]; 24 h): > 256 µg/mL; MIC ([3]; 24 h): > 256 µg/mL; MIC ([6]; 24 h): > 256 µg/mL; MIC ([7]; 24 h): > 256 µg/mL; MIC ([8]; 14 days, 37 °C): n.a. n.d. (n.a. = no activity (MIC > 256 µg/mL)); MIC ([9]; 24 h): > 256 µg/mL; MIC ([10]; ATCC29213, 24 h): > 256 µg/mL; MIC ([11]; ATCC29212, 24 h): > 256 µg/mL; MIC (M. smegmatis ATCC 700084; [12]): > 256 µg/mL
CC(C)C[C@H](NC(=O)c1cc(Cl)ccc1OCc1ccccc1)C(=O)N[C@@H](Cc1ccccc1)C(=O)Nc1ccc(C(F)(F)F)cc1 [5a]	> 256	> 256	> 256	1.998	2.031	2.053	> 10	> 256	> 256	> 256	> 256	> 256	> 256	> 256	
NNC(=O)c1ccncc1 [INH, isoniazid, reference compound]															MIC ([8]; 14 days, 37 °C): 36.6 – µM; MIC (M. smegmatis ATCC 700084; [12]): 117 µM

— paper PMC9569995, “Study of Biological Activities and ADMET-Related Properties of Salicylanilide-Based Peptidomimetics” (International Journal of Molecular Sciences, 2022)
